# Measured values taken from US12331051B2 (priority 2021, dated 2025).
# What was measured:
# [1] = target: ADRa2A (α2A adrenergic receptor) (Homo sapiens, UniProt P08913); assay: BRET-based G protein dissociation assay; assay type: cell-based
# [2] = target: T1, ADRa2C (α2C adrenergic receptor) (Homo sapiens, UniProt P18825); assay: cell-based
# T1 sequence (P18825 1-462): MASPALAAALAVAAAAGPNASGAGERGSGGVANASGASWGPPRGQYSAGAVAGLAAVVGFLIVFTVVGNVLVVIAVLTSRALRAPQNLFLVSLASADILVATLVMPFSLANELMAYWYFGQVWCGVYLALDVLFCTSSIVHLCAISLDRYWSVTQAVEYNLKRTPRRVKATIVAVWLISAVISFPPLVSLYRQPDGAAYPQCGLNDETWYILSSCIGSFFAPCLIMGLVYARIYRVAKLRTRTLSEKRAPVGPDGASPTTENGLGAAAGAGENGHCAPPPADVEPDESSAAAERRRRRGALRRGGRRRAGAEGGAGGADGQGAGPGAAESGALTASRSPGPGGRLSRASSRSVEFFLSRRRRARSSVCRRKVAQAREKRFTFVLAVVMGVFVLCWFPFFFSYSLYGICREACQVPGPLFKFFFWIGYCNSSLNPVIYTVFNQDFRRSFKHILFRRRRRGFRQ
# [3] = target: T2, Beta 1 adrenergic receptor (Homo sapiens, UniProt P08588); assay: Radioligand binding, cell membrane homogenates
# T2 construct: expressed in transfected cells; host or cells: HEK-293
# Description: (§1) Neuro-receptor binding and functional effects of the “E559 polymorph” was examined by analyzing binding affinity [Ki (nM)], functional agonist activity [EC50 (nM)], and functional antagonist activity [IC50 (nM)] against a panel of key receptors in neurophysiological disorders. Binding and functional assays were performed at “E559 polymorph” concentrations of 0.0003, 0.003, 0.01, 0.03, 0.1, 0.3, 1, and 10 μM. In binding assays, cell membrane homogenates, expressing each receptor target, were incubated with the corresponding radio-ligand in absence or presence of several concentration of the “E559 polymorph” compound. The measurement of binding affinity of the “E559 polymorph” is represented in TABLE XIII by Ki (nM) which was calculated as percent inhibition of the binding of a radioactively labeled reference ligand at each receptor. In functional assays the HEK-293 cells expressing each receptor target were suspended in buffer and distribute in microplates and incubated for 30 minutes at room temperature or 37° C. in the presence of buffer alone (basal control), the reference agonist or antagonist, or the “E559 polymorph. Following incubation, the cells were lysed and the appropriate fluorescent probe (Ca2+ flux, cAMP, or IP1) were added for 60 minutes to measure the fluorescence transfer at the appropriate wavelength using a microplate reader. The cellular agonist effect (EC50) was calculated as a percent of control response to a known reference agonist and the cellular antagonist effect (IC50) was calculated as a percent inhibition of control reference agonist response for each receptor.
# [4] = target: T3, D2S dopamine receptor (Homo sapiens, UniProt P14416); assay: Radioligand binding, cell membrane homogenates
# T3 construct: expressed in transfected cells; host or cells: HEK-293
# Description: as §1
# [5] = target: T4, Alpha 2C adrenergic receptor (Homo sapiens, UniProt P18825); assay: Radioligand binding, cell membrane homogenates
# T4 construct: expressed in transfected cells; host or cells: HEK-293
# T4 sequence (P18825 1-462): T1 sequence (P18825 1-462)
# Description: as §1
# [6] = target: T5, Alpha 2B adrenergic receptor (Homo sapiens, UniProt P18089); assay: Radioligand binding, cell membrane homogenates
# T5 construct: expressed in transfected cells; host or cells: HEK-293
# T5 sequence (P18089 1-450): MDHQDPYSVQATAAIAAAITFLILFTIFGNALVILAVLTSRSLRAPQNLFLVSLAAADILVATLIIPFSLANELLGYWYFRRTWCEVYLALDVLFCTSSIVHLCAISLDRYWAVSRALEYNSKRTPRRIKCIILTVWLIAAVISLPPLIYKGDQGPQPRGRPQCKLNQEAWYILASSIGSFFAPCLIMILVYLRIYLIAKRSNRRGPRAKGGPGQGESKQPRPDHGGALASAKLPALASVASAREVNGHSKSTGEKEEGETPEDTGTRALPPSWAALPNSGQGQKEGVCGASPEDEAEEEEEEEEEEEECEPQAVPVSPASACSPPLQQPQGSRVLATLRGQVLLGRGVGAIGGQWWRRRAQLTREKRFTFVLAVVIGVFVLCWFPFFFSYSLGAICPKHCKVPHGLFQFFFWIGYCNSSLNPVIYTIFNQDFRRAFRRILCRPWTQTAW
# Description: as §1
# [7] = target: T6, Serotonin 1B receptor (5-HT1BR) (Homo sapiens, UniProt P28222); assay: Radioligand binding, cell membrane homogenates
# T6 construct: expressed in transfected cells; host or cells: HEK-293
# Description: as §1
# [8] = target: T7, Alpha 1A adrenergic receptor (Homo sapiens, UniProt P35348); assay: Radioligand binding, cell membrane homogenates
# T7 construct: expressed in transfected cells; host or cells: HEK-293
# T7 sequence (P35348 1-466): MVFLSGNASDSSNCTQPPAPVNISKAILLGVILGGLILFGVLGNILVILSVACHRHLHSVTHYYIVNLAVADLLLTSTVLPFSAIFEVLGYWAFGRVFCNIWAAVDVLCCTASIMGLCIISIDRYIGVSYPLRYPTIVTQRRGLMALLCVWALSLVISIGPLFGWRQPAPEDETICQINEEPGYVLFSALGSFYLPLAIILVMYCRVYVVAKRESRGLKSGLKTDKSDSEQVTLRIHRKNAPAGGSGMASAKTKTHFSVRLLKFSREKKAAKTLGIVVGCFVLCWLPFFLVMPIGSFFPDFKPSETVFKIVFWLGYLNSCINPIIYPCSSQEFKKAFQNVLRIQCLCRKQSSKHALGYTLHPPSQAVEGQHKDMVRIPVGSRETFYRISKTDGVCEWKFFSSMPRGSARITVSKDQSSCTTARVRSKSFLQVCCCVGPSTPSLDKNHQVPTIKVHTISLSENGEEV
# Description: as §1
# Chain of ADRa2A (α2A adrenergic receptor) (P08913 whole entry): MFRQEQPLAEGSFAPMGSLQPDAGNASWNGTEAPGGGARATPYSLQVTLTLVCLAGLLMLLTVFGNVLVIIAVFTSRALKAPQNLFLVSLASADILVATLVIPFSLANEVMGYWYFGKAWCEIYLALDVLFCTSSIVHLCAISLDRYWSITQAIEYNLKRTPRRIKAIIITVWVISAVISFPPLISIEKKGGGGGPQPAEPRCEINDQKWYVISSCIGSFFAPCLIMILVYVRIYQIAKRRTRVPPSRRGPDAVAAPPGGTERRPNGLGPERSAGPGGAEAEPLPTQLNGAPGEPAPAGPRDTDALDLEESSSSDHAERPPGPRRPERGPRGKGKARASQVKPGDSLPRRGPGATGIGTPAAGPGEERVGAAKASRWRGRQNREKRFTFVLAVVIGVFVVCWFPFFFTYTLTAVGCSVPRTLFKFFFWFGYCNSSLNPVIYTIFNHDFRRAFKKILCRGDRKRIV
# T6 sequence (P28222 whole entry): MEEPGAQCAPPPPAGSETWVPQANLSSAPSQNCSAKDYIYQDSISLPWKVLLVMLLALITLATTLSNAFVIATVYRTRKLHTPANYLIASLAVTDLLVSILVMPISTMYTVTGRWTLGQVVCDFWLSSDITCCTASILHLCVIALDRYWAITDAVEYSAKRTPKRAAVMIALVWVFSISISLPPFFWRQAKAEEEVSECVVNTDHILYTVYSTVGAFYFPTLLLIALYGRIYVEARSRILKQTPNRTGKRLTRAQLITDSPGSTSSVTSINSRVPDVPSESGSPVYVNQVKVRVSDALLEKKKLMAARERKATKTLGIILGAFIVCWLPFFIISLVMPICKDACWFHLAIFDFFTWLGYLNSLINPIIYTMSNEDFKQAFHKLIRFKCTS
# T2 sequence (P08588 whole entry): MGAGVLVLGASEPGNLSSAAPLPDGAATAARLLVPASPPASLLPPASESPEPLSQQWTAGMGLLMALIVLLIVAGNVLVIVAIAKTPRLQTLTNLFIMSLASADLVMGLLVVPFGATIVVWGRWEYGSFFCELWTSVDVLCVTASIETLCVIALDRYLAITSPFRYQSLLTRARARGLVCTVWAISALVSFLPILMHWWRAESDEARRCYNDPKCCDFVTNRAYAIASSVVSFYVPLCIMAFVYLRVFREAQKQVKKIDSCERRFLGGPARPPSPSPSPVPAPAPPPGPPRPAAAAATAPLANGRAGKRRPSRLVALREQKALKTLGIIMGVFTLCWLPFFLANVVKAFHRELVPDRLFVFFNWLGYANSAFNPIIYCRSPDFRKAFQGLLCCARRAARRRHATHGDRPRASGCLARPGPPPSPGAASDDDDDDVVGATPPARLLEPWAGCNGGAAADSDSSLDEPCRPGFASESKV
# T3 sequence (P14416 1-414 isoform P14416-2): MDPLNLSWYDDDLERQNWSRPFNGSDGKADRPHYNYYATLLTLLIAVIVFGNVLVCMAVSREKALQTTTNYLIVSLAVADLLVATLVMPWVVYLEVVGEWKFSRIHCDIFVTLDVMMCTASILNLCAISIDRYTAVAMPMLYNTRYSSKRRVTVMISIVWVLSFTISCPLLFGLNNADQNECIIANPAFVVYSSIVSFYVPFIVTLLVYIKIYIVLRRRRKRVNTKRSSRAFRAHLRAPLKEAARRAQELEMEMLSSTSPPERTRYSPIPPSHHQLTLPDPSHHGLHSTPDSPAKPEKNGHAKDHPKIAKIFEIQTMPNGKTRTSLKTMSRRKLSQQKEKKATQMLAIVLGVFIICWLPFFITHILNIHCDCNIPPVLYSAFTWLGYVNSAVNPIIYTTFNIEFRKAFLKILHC
structure (smiles),measurement,setting,value
"CCN(CC)C(=O)[C@@H]1C=C2c3cccc4[nH]c(Br)c(c34)C[C@H]2N(C)C1 [E559, (5R, 8R)-2-Bromo-9,10-didehydro-N,N-diethyl-6-methylergoline-8-carboxamide hemi-D-tartrate]",EC50,[1],0.282 µM
same,Kb,[1],0.0119 µM
same,EC50,[2],0.0103 µM
same,Emax,[2],40.5%
same,Kb,[2],0.016 µM
same,Ki,[3],0.109 µM
same,Ki,[4],0.0021 µM
same,Ki,[5],0.027 µM
same,Ki,[6],0.027 µM
same,Ki,[7],0.077 µM
same,Ki,[8],0.059 µM
